“Also recorded” adds a separate entry of the source.
Columns and labels:
IRAK4 = assay: In vitro IRAK4 degradation, monkey PBMCs; type: cell-based
[1] = In vivo PK studies in rats, dogs and monkeys
Excerpt: (§1) In in vivo pharmacokinetic (PK) studies conducted in rats, dogs, and monkeys.

Permeability = type: in vitro ADME
Excerpt: as §1
Compound A can be classified tentatively as a BCS II compound.

CYP2C19 = CYP2C19 (Homo sapiens, UniProt P33261); assay: In vitro drug-drug interaction study, CYP2C19; type: in vitro ADME
Excerpt: (§2) Metabolites generated in liver microsomes from humans were also detected in those from rat, dog, and monkey. In the in vitro drug-drug interaction studies.

CYP3A4 = CYP3A4 (Homo sapiens, UniProt P08684); assay: In vitro drug-drug interaction and metabolism studies, CYP3A4; type: in vitro ADME
Excerpt: as §2

[2] = test system: LPS (TLR4)-stimulated cytokine induction in whole blood; assay: Phase 1 SAD ex vivo LPS-stimulated cytokine induction in whole blood; design: species or system human; settings: 24-48 hours, Cohort 7
[3] = Phase 1 SAD safety and tolerability; type: in vivo, human
Excerpt: Part A: Part A is a double-blind, randomized, placebo-controlled, SAD, sequential group study in 56 adult HVs, divided in 7 cohorts of eight HVs each. Seven ascending single doses (1 dose level per cohort) will be investigated. One or more additional cohorts may be added, as needed.
• Treatment-emergent (serious) adverse events ([S]AEs) • Concomitant medication • Clinical laboratory tests • Hematology • Coagulation • Chemistry • Urinalysis and urine microscopy • Vital signs • Pulse Rate (bpm) • Systolic blood pressure (BP) (mm Hg) • Diastolic BP (mm Hg) • Respiratory rate • Temperature • Safety electrocardiogram and Holter monitoring • Heart Rate (bpm). PR, QRS, QT, QTcF
All data will be fully listed.

Phase 1 MAD safety = type: in vivo, human; settings: multiple daily doses over 14 days up to 200 mg (MAD 4)
Excerpt: Steady-state plasma levels were reached by Day 7, with approximately 3-fold increase in exposure on Day 14 compared to Day 1.

[4] = Phase 1 Part C Compound A skin concentration; type: in vivo, human; settings: FIG. 20, Day 28
[5] = test system: patients with atopic dermatitis (AD); assay: Phase 1 Part C clinical efficacy in atopic dermatitis; type: in vivo, human
Excerpt: (§3) Baseline Characteristics and Disposition: A total of 21 patients were enrolled in the trial, including 13 HS and 8 AD patients, with median age 31-40 years (13 female, 8 male). Disease severity for HS was moderate (10), severe (1) and very severe (2) and for AD was mild (1), moderate (5) and severe (2). One HS and 1 AD patient withdrew from treatment early due to personal reasons, resulting in 12 HS and 7 AD patients evaluable for PD and clinical efficacy.
AD clinical endpoints collected in the study included EASI score, Peak Pruritus NRS and vIGA-AD. Peak Pruritus NRS was used to derive Peak Pruritus NRS responder rate.

[6] = test system: patients with hidradenitis suppurativa (HS); assay: Phase 1 Part C clinical efficacy in hidradenitis suppurativa; type: in vivo, human; settings: for ΔAN Count / ΔPain NRS / ΔPeak Pruritis NRS / Responders: AN Count 0/1/2 / Responders: HiSCR50 / Responders: HiSCR75 / Responders: Pain NRS30: HS; for ΔAN Count: deepest reduction across Days 28 through 42; for ΔPain NRS / ΔPeak Pruritis NRS: deepest reduction, past week; for Responders: AN Count 0/1/2 / Responders: HiSCR50 / Responders: HiSCR75 / Responders: Pain NRS30: highest response across Days 28 through 42
Excerpt: as §3
HS clinical endpoints collected in the study included AN count, Pain NRS. Pruritus NRS and HS-PGA. […] Analyses were done for all patients, including very severe (n=12), and for patients with only moderate to severe disease (n=10).

Phase 1 Part C safety = type: in vivo, human
[7] = blinded SAD, study treatment related, per Investigator
[8] = AD, n = 7, 75 mg QD fed, highest response across Days 28 through 42
[9] = AD, n = 7, deepest reduction across Days 28 through 42

Sequence of CYP3A4 (P08684 whole entry): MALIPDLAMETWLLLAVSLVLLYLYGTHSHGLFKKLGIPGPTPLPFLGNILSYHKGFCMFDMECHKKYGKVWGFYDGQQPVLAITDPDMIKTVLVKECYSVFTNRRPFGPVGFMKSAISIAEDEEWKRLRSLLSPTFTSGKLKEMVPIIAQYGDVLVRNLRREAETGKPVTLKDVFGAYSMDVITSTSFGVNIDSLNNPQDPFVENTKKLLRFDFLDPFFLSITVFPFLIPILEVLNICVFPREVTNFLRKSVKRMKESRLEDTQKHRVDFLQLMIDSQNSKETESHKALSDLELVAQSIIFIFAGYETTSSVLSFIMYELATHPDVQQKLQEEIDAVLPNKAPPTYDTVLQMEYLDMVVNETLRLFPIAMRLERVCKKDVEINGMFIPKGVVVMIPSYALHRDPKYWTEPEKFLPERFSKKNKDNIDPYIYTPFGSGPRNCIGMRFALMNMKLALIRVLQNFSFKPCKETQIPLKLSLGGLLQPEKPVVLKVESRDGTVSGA
Sequence of CYP2C19 (P33261 whole entry): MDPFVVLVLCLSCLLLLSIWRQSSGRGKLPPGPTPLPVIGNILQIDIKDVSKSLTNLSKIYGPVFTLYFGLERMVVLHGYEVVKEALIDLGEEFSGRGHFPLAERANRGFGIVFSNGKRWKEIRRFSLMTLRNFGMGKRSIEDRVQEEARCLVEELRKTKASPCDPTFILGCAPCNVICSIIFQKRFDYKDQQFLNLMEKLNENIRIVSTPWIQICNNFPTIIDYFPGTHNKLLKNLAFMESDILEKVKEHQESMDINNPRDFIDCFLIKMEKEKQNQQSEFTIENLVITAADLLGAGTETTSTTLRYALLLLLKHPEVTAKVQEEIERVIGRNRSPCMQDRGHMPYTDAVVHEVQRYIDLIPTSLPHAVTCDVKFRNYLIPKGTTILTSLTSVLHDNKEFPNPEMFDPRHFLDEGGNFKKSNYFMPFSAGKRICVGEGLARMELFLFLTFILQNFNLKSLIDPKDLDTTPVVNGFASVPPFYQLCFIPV

Compound: Cn1c(=O)n([C@@H]2CCC(=O)NC2=O)c2cccc(C#CCOC3CCN(C[C@H]4CC[C@H](n5cc(NC(=O)c6cnn7ccc(N8C[C@H]9C[C@@H]8CO9)nc67)c(C(F)F)n5)CC4)CC3)c21 [Compound A, 5-((1R,4R)-2-oxa-5-azabicyclo[2.2.1]heptan-5-yl)-N-(3-(difluoromethyl)-1-((1r,4R)-4-((4-((3-(1-(2,6-dioxopiperidin-3-yl)-3-methyl-2-oxo-2,3-dihydro-1H-benzo[d]imidazol-4-yl)prop-2-yn-1-yl)oxy)piperidin-1-yl)methyl)cyclohexyl)-1H-pyrazol-4-yl)pyrazolo[1,5-a]pyrimidine-3-carboxamide]
- bioavailability [1]: low to moderate
- clearance [1]: moderate to high
- terminal half-life [1]: moderate
- volume of distribution at steady state [1]: high
- permeability (Permeability): medium; also recorded: moderate
- time dependent inhibition (TDI) of CYP2C19 (CYP2C19): potential time dependent inhibition (TDI)
- metabolizing enzyme (CYP3A4): primarily metabolized by CYP3A4
- time dependent inhibition (TDI) of CYP3A4 (CYP3A4; in vitro): potential time dependent inhibition (TDI)
- Mean Maximum Percent Change from Baseline in ex vivo IFNγ induction [2]: −42%^
- Mean Maximum Percent Change from Baseline in ex vivo IL1β induction [2]: −68%^1
- Mean Maximum Percent Change from Baseline in ex vivo IL6 induction [2]: −62%^1
- Mean Maximum Percent Change from Baseline in ex vivo IL8 induction [2]: −81%^1
- Mean Maximum Percent Change from Baseline in ex vivo IL10 induction [2]: −83%^1
- Mean Maximum Percent Change from Baseline in ex vivo IL12 induction [2]: −35%^2
- Mean Maximum Percent Change from Baseline in ex vivo IL17 induction [2]: −43%^2
- Mean Maximum Percent Change from Baseline in ex vivo TNFα induction [2]: −42%^2
- Abdominal pain, Severity ([3]; Cohort SAD 5): Mild
- Diarrhea, Severity ([3]; Cohort SAD 5): Mild
- Headache, Severity ([3]; Cohort SAD 5): Mild (x2)
- Palpitations, Severity ([3]; Cohort SAD 5): Mild
- Headache, Severity ([3]; Cohort SAD 5, SAD 5 FE, SAD 6): Moderate (x3)
- Diarrhea, Severity ([3]; Cohort SAD 5 FE): Mild
- Nausea, Severity ([3]; Cohort SAD 5 FE): Mild
- Vomiting, Severity ([3]; Cohort SAD 5 FE): Mild (x2)
- Muscle weakness, Severity ([3]; Cohort SAD 6): Mild
- Myalgia, Severity ([3]; Cohort SAD 6): Mild
- Nausea, Severity ([3]; Cohort SAD 6): Mild (x2)
- ECG changes ([3]; SAD): No significant ECG changes
- QTcF prolongation ([3]; SAD): no clinically significant QTcF prolongation
- serious adverse events ([3]; SAD): no serious adverse events; also recorded: No SAEs
- AST elevation ([3]; SAD 5, n=1, resolution ~Day 21): 3.8 ×ULN
- ALT elevation ([3]; SAD 5, n=1, slow resolution to baseline): 2.5 ×ULN
- Abdominal pain, #AEs (subjects) [3, 7]: 1
- Diarrhea, #AEs (subjects) [3, 7]: 2 (2)
- Headache, #AEs (subjects) [3, 7]: 5 (4)
- Muscle weakness, #AEs (subjects) [3, 7]: 1
- Myalgia, #AEs (subjects) [3, 7]: 1
- Nausea, #AEs (subjects) [3, 7]: 3 (3)
- Palpitations, #AEs (subjects) [3, 7]: 1
- Vomiting, #AEs (subjects) [3, 7]: 2 (1)
- safety and tolerability ([3]; single doses, healthy volunteers): safe and well-tolerated
- safety and tolerability (Phase 1 MAD safety): safe and well-tolerated
- EASI score reduction ([5]; AD patients, FIG. 26): up to 37%
- Peak Pruritus NRS reduction ([5]; AD patients, FIG. 27): 52-63%
- Peak pruritus NRS Responder rate ([5]; AD patients, FIG. 27): 57-71%
- Responders: Peak Pruritis NRS, Past 24 Hours [5, 8]: 71%
- Responders: Peak Pruritis NRS, Past Week [5, 8]: 57%
- ΔEASI [5, 9]: −37%
- ΔPeak Pruritis NRS, Past 24 Hours [5, 9]: −63%
- ΔPeak Pruritis NRS, Past Week [5, 9]: −52%
- disease severity in patient AD-3 ([5]; FIG. 29): from severe to mild
- vIGA-AD (IGA scores) ([5]; all AD patients): stable or improved (2 of 7)
- disease severity in patient HS-10 ([6]; FIG. 36): from moderate to mild
- AN count of 0/1/2 response rate ([6]; HS patients, FIG. 30): 42-50%
- AN count reduction ([6]; HS patients, FIG. 30): 46-51%
- HiSCR50 response rate ([6]; HS patients, FIG. 31): 42-50%
- reduction in Pain NRS ([6]; HS patients, FIG. 32): 49-50%
- response rate in Pain NRS30 ([6]; HS patients, FIG. 32): 50-60%
- reduction in Peak Pruritus NRS ([6]; HS patients, FIG. 33): 62-68%
- ΔAN Count ([6]; All Patients (n = 12)): −46%
- ΔPain NRS ([6]; All Patients (n = 12)): −49%
- ΔPeak Pruritis NRS ([6]; All Patients (n = 12)): −62%
- Responders: AN Count 0/1/2 ([6]; All Patients (n = 12)): 42%
- Responders: HiSCR50 ([6]; All Patients (n = 12)): 42%
- Responders: HiSCR75 ([6]; All Patients (n = 12)): 25%
- Responders: Pain NRS30 ([6]; All Patients (n = 12)): 50%
- ΔAN Count ([6]; Moderate/Severe (n = 10)): −51%
- ΔPain NRS ([6]; Moderate/Severe (n = 10)): −55%
- ΔPeak Pruritis NRS ([6]; Moderate/Severe (n = 10)): −68%
- Responders: AN Count 0/1/2 ([6]; Moderate/Severe (n = 10)): 50%
- Responders: HiSCR50 ([6]; Moderate/Severe (n = 10)): 50%
- Responders: HiSCR75 ([6]; Moderate/Severe (n = 10)): 50%
- Responders: Pain NRS30 ([6]; Moderate/Severe (n = 10)): 60%
- HS-PGA scores ([6]; all HS patients): stable or improved (5 of 12)
- lesions and symptoms in patient HS-3 ([6]; moderate disease at baseline, FIG. 35): complete clearing of lesions and symptoms
- course of QTc prolongation with continued dosing (Phase 1 Part C safety): resolution to baseline by Day 28; also recorded: spontaneously resolved to baseline by Day 28
- serious adverse events (Phase 1 Part C safety): no serious adverse events
- severity of adverse events (headache, fatigue, diarrhea) (Phase 1 Part C safety): predominantly mild
- safety and tolerability (Phase 1 Part C safety; 75 mg QD fed, 28 days, HS/AD patients): generally safe and well-tolerated
- QTcF prolongation (Phase 1 Part C safety; Days 7-14): modest, non-adverse QTcF prolongation

Reference: US20260207614A1, “IRAK4 DEGRADERS AND USES THEREOF” (Kymera Therapeutics, Inc., priority 2022, published 2026)
